Laboratory results published in patent US20230183237A1, “COMPETITIVE AND NONCOMPETITIVE INHIBITORS OF THE MUSCARINIC ACETYLCHOLINE RECEPTOR M5” (Vanderbilt University, priority 2020, published 2023).

target: T1, hM5 (Homo sapiens, UniProt P08912); test: Calcium mobilization concentration-response (IC50 vs EC80 acetylcholine), CHO hM5; format: cell-based; details: CELL LINE hM5; calcium mobilization, EC80 acetylcholine addition; read-out: IC50
T1 construct: expressed in transfected cells
T1 sequence (P08912 1-532): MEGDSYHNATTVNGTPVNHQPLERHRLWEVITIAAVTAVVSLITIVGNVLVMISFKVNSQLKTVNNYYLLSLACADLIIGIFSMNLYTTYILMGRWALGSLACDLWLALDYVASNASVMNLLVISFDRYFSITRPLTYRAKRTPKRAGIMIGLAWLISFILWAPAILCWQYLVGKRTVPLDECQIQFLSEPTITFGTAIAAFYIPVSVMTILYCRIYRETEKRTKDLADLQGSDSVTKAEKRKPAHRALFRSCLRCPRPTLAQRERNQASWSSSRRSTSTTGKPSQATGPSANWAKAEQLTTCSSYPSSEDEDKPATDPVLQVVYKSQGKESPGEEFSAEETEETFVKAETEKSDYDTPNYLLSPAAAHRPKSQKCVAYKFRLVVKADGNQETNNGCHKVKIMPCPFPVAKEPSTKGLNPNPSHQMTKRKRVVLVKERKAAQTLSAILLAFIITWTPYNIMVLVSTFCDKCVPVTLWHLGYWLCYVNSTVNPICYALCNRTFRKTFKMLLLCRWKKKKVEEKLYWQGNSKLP
Summary of the method: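 IC50 values derive from percent maximal acetylcholine response after an EC80 ACh addition, measured as kinetic calcium fluorescence (static ratio, max−min). Test compounds were added 140 s before agonist. Cells: stable hM5-CHO in HEPES-buffered HBSS with 2.5 mM probenecid, pH 7.4; ≥3 independent triplicate determinations.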

Compared with `O=S(=O)(c1cnc2ccccn12)N1CCC(c2cn3ncnc3cc2F)CC1` [Compound 327, 7-fluoro-6-(1-(imidazo[1,2-a]pyridin-3-ylsulfonyl)piperidin-4-yl)-[1,2,4]triazolo[1,5-a]pyridine], `Cc1nn(C)c(C(F)(F)F)c1S(=O)(=O)N1CCC(c2cn3ncnc3cc2F)CC1` [Compound 227, 6-(1-((1,3-dimethyl-5-(trifluoromethyl)-1H-pyrazol-4-yl)sulfonyl)piperidin-4-yl)-7-fluoro-[1,2,4]triazolo[1,5-a]pyridine] is 2.7-fold higher in IC50: 0.774 µM for the first, 2.1 µM for the second.

Going from `Cc1cc2nncn2cc1C1CCN(S(=O)(=O)c2cc3c(cc2F)OCC3)CC1` [Compound 51, 6-(1-((6-fluoro-2,3-dihydrobenzofuran-5-yl)sulfonyl)piperidin-4-yl)-7-methyl-[1,2,4]triazolo[4,3-a]pyridine] to `Cc1cc2nccn2cc1C1CCN(S(=O)(=O)c2ccc3c(c2)CCO3)CC1` [Compound 66, 6-(1-((2,3-dihydrobenzofuran-5-yl)sulfonyl)piperidin-4-yl)-7-methylimidazo[1,2-a]pyridine], the IC50 falls from over 10 µM to 1.3 µM. The second is the more potent here.

Compared with `Cc1cc2ncnn2cc1[C@@H]1CCN(S(=O)(=O)c2cnn(C)c2Cl)C[C@H]1O` (racemic) [Compound 282, (rac)-trans-1-((5-Chloro-1-methyl-1H-pyrazol-4-yl)sulfonyl-4-(7-methyl-[1,2,4]triazolo[1,5-a]pyridin-6-yl)piperidin-3-ol], `O=S(=O)(c1ccc2c(c1)CCO2)N1CCC(c2cn3ncnc3cc2C(F)(F)F)CC1` [Compound 109, 6-(1-((2,3-dihydrobenzofuran-5-yl)sulfonyl)piperidin-4-yl)-7-(trifluoromethyl)-[1,2,4]triazolo[1,5-a]pyridine] is 7.2-fold higher in IC50: 0.103 µM for the first, 0.746 µM for the second. The first is the more potent here.

Compared with `O=S(=O)(c1cnn2c1CCC2)N1CCC(c2ccncc2)CC1` [Compound 366, 3-((4-(pyridin-4-yl)piperidin-1-yl)sulfonyl)-5,6-dihydro-4H-pyrrolo[1,2-b]pyrazole], `Cc1cc2nccn2nc1C1CCN(S(=O)(=O)c2ccc3c(c2)CCCO3)CC1` [Compound 43, 6-(1-(chroman-6-ylsulfonyl)piperidin-4-yl)-7-methylimidazo[1,2-b]pyridazine] is lower in IC50: over 10 µM for the first, 3.6 µM for the second.

same assay, conditions: CELL LINE hM5; vs EC80 acetylcholine; read-out: IC50

First: Cc1nc2n(c1C1CCN(S(=O)(=O)c3cnn(C)c3Cl)CC1)CCCC2 [Compound 463, 3-(1-((5-Chloro-1-methyl-1H-pyrazol-4-yl)sulfonyl)piperidin-4-yl)-2-methyl-5,6,7,8-tetrahydroimidazo[1,2-a]pyridine]
Second: Cc1c(S(=O)(=O)N2CCC(c3cn4ncnc4cc3C(=O)O)CC2)cnn1C [Compound 479, 6-(1-((1,5-dimethyl-1H-pyrazol-4-yl)sulfonyl)piperidin-4-yl)-[1,2,4]triazolo[1,5-a]pyridine-7-carboxylic acid]
The IC50 of the first is lower: 0.25 µM for the first, over 10 µM for the second.

Compared with `Cc1cc2ncnn2cc1C1CCN(S(=O)(=O)c2cnc(Cl)s2)CC1` [Compound 523, 2-chloro-5-((4-(7-methyl-[1,2,4]triazolo[1,5-a]pyridin-6-yl)piperidin-1-yl)sulfonyl)thiazole], `Cc1ncc(S(=O)(=O)N2CCC(F)(c3cn4ncnc4cc3C)CC2)o1` [Compound 560, 5-((4-fluoro-4-(7-methyl-[1,2,4]triazolo[1,5-a]pyridin-6-yl)piperidin-1-yl)sulfonyl)-2-methyloxazole] is 11-fold higher in IC50: 0.291 µM for the first, 3.14 µM for the second.

Compared with `Cc1cc2ncnn2cc1C1(F)CCN(S(=O)(=O)c2cnn3cccnc23)CC1` [Compound 458, 6-(4-fluoro-1-(pyrazolo[1,5-a]pyrimidin-3-ylsulfonyl)piperidin-4-yl)-7-methyl-[1,2,4]triazolo[1,5-a]pyridine], `Cn1ncc(S(=O)(=O)N2CC=C(c3c4ccccc4nn3C)CC2)c1C#N` [Compound 490, 1-methyl-4-((4-(2-methyl-2H-indazol-3-yl)-3,6-dihydropyridin-1(2H)-yl)sulfonyl)-1H-pyrazole-5-carbonitrile] is 9.7-fold higher in IC50: 0.754 µM for the first, 7.3 µM for the second.
